The structures appear in SMILES notation. Where a SMILES comes first, the peptide text is derived from it. The star is where a group is joined. Cbz = O=C(OCc1ccccc1)*

The assay relates to MIZ1. The assay is described as follows: HUWE1-mediated decrease in MIZ1 levels in transfected HeLa cells. It is filed as cell-based. The following applies: MG132 10 µM for 6 hrs. An excerpt: Neither depletion nor chemical inhibition of HUWE1 affected the expression of any member of the MXD family of repressor proteins that antagonize transactivation by MYC or nuclear localization of MYC (Supplementary Figs S9A and S10). […] In contrast, ectopic expression of HUWE1 had only moderate effects on steady-state levels of MYC, consistent with the results obtained in response to depletion of HUWE1 (Fig6A). As a result, ectopic expression of HUWE1 increased the relative amount of MYC that is not bound to MIZ1 (Fig6B). […] Consistently, depletion or chemical inhibition of HUWE1 increased steady-state levels of MIZ1 in colon carcinoma cells (Fig6D and E). Similarly, depletion or inhibition of HUWE1 increased levels of MIZ1 in mouse keratinocytes (Supplementary Fig S11B and C), in which HUWE1 is known to degrade MIZ1 (Inoue et al, [2013]).
Peter et al. HUWE1 inhibition
B. Immunofluorescence staining of MYC upon HUWE1 inhibition. Ls174T cells were treated […]
Supplementary Figure S11: Characterization of HUWE1 effects on MIZ1 stability.
A, Effect of proteasome inhibition on HUWE1-induced downregulation of MIZ1. HeLa cells were transfected with plasmids encoding MIZ1 and HA-HUWE1. Cells were treated with BI8622 (20 µM) for 24 hrs, DMSO served as solvent control. MG132 was used at 10 µM for 6 hrs. Lysates were analyzed for expression of HUWE1 and MIZ1, Vinculin was used as […]

For `CC(C)C[C@@H](C=O)NC(=O)[C@H](CC(C)C)NC(=O)[C@H](CC(C)C)NC(=O)OCc1ccccc1` [MG132] (Cbz-Leu-Leu-Leu-aldehyde), the “HUWE1-mediated decrease in MIZ1 levels” value is listed as “blocked”.

The values above are taken from article PMC4287973, “Tumor cell-specific inhibition of MYC function using small molecule inhibitors of the HUWE1 ubiquitin ligase” (EMBO Molecular Medicine, 2014).
